From patent publication US10363263B2, “Anti-aging compositions and methods for using same” (Prescient Pharma LLC, priority 2015, dated 2019)

Legend:
[1] = test system: normal human colon fibroblast cell line CCD 841 CoN (CRL-1790, ATCC); assay: Senescence beta-galactosidase staining of aged normal human colon fibroblasts (Examples 1 and 2); format: cell-based; conditions: 48 hours; for effect on beta-galactosidase staining in comparison with non-treated controls: monotherapy, 0.15 μM lithium carbonate or 0.25 mM glycyrrhizic acid; for visible positive beta-galactosidase staining (FIGS. 1-4): visual, light microscope 100×, 0.15 μM lithium carbonate and/or 0.25 mM glycyrrhizic acid
Method: Aging-associated beta-galactosidase is widely used as a biomarker of senescence. Here we investigated senescence-associated-beta-galactosidase activity of human colon fibroblast cells by visual assessment.
In this Example, the effect of treatment with lithium and glycyrrhizic acid separately, and as a fixed combination, was evaluated on normal human colon fibroblast cell line CCD 841 CoN (CRL-1790, ATCC).
Group 4 (flasks 10-12, control), the medium was changed to fresh compete EMEM medium without drugs as controls.
FIGS. 1-4 show pictures of the staining results for each of the groups, respectively.
Digital pictures showing the staining results for each of the 12 flasks were then independently examined and scored for percentage of area of green (positive) staining based on pixels, with and without background subtraction.
Higher values reflect more intensive green staining which corresponds to more aged cells.
Group#9 contained complete EMEM medium with glycyrrhizic acid 0.25 mM.
Group#10 contained complete EMEM medium only and was used as a control.
FIGS. 6-15 show pictures of the staining results for each of the groups, respectively.

[2] = test system: wild-type N2 Bristol strain of C. elegans; assay: C. elegans longevity study (Example 4); format: in vivo; conditions: for longevity effect: monotherapy; for Restricted mean Days (survival): control 15.53
Method: In this fourth Example, the effect of treatment with lithium and Glycyrrhizic acid separately, and as a fixed combination, was further evaluated on the wild-type N2 Bristol strain of C. elegans. Worm stocks were maintained on nematode growth medium (NGM) dishes containing 10 μg/mL cholesterol (Cat. No. C8667; Sigma-Aldrich, Saint Louis, Mo., USA). Dishes were seeded with OP50 Escherichia coli as a food source. Twelve polystyrene petri dishes (35 mm diameter) were prepared by filling with NGM agar containing […] cholesterol, and 25 μM 5-Fluoro-2′-deoxyuridine to suppress reproduction (FUDR; Cat. No. F0503; Sigma-Aldrich, Saint Louis, Mo., USA). The dishes were seeded with OP50 Escherichia coli as a food source. Duplicate dishes were used for each group. The treatment drug was dissolved in deionized water, and added to the dishes for the groups as explained below: […] Group#5: Glycyrrhizic acid in concentration of 0.25 mM Group#6: untreated (control) NGM-agar treatment plates containing cholesterol (10 μg/mL) and 25 μM 5-Fluoro-2′-deoxyuridine (FUDR; Cat. No. F0503; Sigma-Aldrich, Saint Louis, Mo., USA) to suppress reproduction. […] The survival data for the various groups are also depicted in FIG. 17.

[3] = lithium carbonate 15 or 0.15 μM as in the label, Ga = glycyrrhizic acid 0.25 mM
[4] = lithium carbonate 15 or 0.15 μM as in the label, Ga = glycyrrhizic acid 0.25 mM, listed as Li0.15 uM
[5] = lithium carbonate 15 or 0.15 μM as in the label, Ga = glycyrrhizic acid 0.25 mM, listed as Li15 uM

## CC1(C)[C@@H](O[C@H]2O[C@H](C(=O)O)[C@@H](O)[C@H](O)[C@H]2O[C@@H]2O[C@H](C(=O)O)[C@@H](O)[C@H](O)[C@H]2O)CC[C@]2(C)[C@H]3C(=O)C=C4[C@@H]5C[C@@](C)(C(=O)O)CC[C@]5(C)CC[C@@]4(C)[C@]3(C)CC[C@@H]12 [glycyrrhizic acid, (3β,20β)-20-carboxy-11-oxo-30-norolean-12-en-3-yl 2-O-β-D-glucopyranuronosyl-α-D-glucopyranosiduronic acid]
[1]
  effect on beta-galactosidase staining in comparison with non-treated controls: did not appear to have significant effect
  visible positive beta-galactosidase staining (FIGS. 1-4): stained positively
[2]; [3]
  Age in days at 100% mortality: 20 days
[2]
  longevity effect: not observed

## O=C([O-])[O-].[Li+].[Li+] [lithium carbonate]
[1]
  effect on beta-galactosidase staining in comparison with non-treated controls: did not appear to have significant effect
  visible positive beta-galactosidase staining (FIGS. 1-4): stained positively
[2]; [3]
  Age in days at 50% mortality: 15 days
  Age in days at 75% mortality: 16 days
  Age in days at 90% mortality: 18 days
  Age in days at 100% mortality: 19 days
[2]; [4]
  Restricted mean Days (survival): 14.88 days
  Age in days at 25% mortality: 13 days
[2]; [5]
  Restricted mean Days (survival): 14.56 days
  Age in days at 25% mortality: 14 days
[2]
  longevity effect: not observed
